Tested on: 953936-095-R-J2-PDC spheroids with HUVEC/MSC, viability
Experiment: Anticancer human tumor 953936-095-R-J2-PDC patient-derived cervical squamous cell carcinoma cell line growth inhibition [PI3K]
Details: for IC50: curve of first compound; for viability, T/C: stronger effect = lower value; active means viability on the fitted dose curve at most 10% of control; inactive means the rest
Outline: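 Three cell types, namely tumor cells, endothelial cells and mesenchymal stem cells, formed each spheroid. Combinations with four PI3K inhibitors were screened at clinically achievable concentrations decreasing by half-log, and spheroid viability was recorded.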
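Further: spheroids exposed to compounds for seven days before read-out.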

CC(=O)c1c(C)c2cnc(Nc3ccc(N4CCNCC4)cn3)nc2n(C2CCCC2)c1=O + Cc1nc(NC(=O)N2CCCC2C(N)=O)sc1-c1ccnc(C(C)(C)C(F)(F)F)c1
< 0.316 nM: IC50 (second compound 1 µM) | IC50 (second compound 3.16 µM) | IC50 (second compound 10 µM)
inactive: viability, T/C (second compound 0.0316 µM, first compound 0.000316 µM) 88.8% | viability, T/C (second compound 0.0316 µM, first compound 0.001 µM) 92.6% | viability, T/C (second compound 0.0316 µM, first compound 0.00316 µM) 88.5% | viability, T/C (second compound 0.0316 µM, first compound 0.01 µM) 91% | viability, T/C (second compound 0.0316 µM, first compound 0.0316 µM) 103% | viability, T/C (second compound 0.0316 µM, first compound 0.1 µM) 89.5% | viability, T/C (second compound 0.1 µM, first compound 0.000316 µM) 75.6% | viability, T/C (second compound 0.1 µM, first compound 0.001 µM) 82.3% | viability, T/C (second compound 0.1 µM, first compound 0.00316 µM) 85.6% | viability, T/C (second compound 0.1 µM, first compound 0.01 µM) 74.1% | viability, T/C (second compound 0.1 µM, first compound 0.0316 µM) 88% | viability, T/C (second compound 0.1 µM, first compound 0.1 µM) 75.9% | viability, T/C (second compound 0.316 µM, first compound 0.000316 µM) 57.8% | viability, T/C (second compound 0.316 µM, first compound 0.001 µM) 69.5% | viability, T/C (second compound 0.316 µM, first compound 0.00316 µM) 61% | viability, T/C (second compound 0.316 µM, first compound 0.01 µM) 60.7% | viability, T/C (second compound 0.316 µM, first compound 0.0316 µM) 70.2% | viability, T/C (second compound 0.316 µM, first compound 0.1 µM) 59.3% | viability, T/C (second compound 1 µM, first compound 0.000316 µM) 46.1% | viability, T/C (second compound 1 µM, first compound 0.001 µM) 46.3% | viability, T/C (second compound 1 µM, first compound 0.00316 µM) 44.4% | viability, T/C (second compound 1 µM, first compound 0.01 µM) 44.1% | viability, T/C (second compound 1 µM, first compound 0.0316 µM) 45.3% | viability, T/C (second compound 1 µM, first compound 0.1 µM) 43.5% | viability, T/C (second compound 3.16 µM, first compound 0.000316 µM) 25.4% | viability, T/C (second compound 3.16 µM, first compound 0.001 µM) 25.3% | viability, T/C (second compound 3.16 µM, first compound 0.00316 µM) 27.3% | viability, T/C (second compound 3.16 µM, first compound 0.01 µM) 24.9% | viability, T/C (second compound 3.16 µM, first compound 0.0316 µM) 28.3% | viability, T/C (second compound 3.16 µM, first compound 0.1 µM) 24.7% | viability, T/C (second compound 10 µM, first compound 0.000316 µM) 11.3% | viability, T/C (second compound 10 µM, first compound 0.001 µM) 10.9% | viability, T/C (second compound 10 µM, first compound 0.00316 µM) 10.2% | viability, T/C (second compound 10 µM, first compound 0.01 µM) 10.2% | viability, T/C (second compound 10 µM, first compound 0.0316 µM) 11.4% | viability, T/C (second compound 10 µM, first compound 0.1 µM) 11.7%
> 100 nM: IC50 (second compound 0.0316 µM) | IC50 (second compound 0.1 µM) | IC50 (second compound 0.316 µM)
